Data on 68 molecules can be found in patent publication US12507703B2, “Methods, devices and compositions for preserving human milk” (The Trustees of Princeton University, priority 2023, dated 2025).

Several values for one entry are separate records, joined by “and”; a condition that tells them apart may be missing. Equal values may be shown once. Where a name gives a salt, the structure may show the parent alone.

This experiment relates to lipase. The experiment in a line: Lipase/lipolysis assay (EnzChek Lipase Substrate, quenched BODIPY-fatty acid conjugate) on stored human milk. For Lipase (RFU): test concentration or dose not given here.
On to Erythrosine B, for which the “Lipase (RFU)” value was 836.3958 RFU.
The same measure, in the same setting: for `C/C(=C\CC[C@@H](C)[C@H]1CC[C@@]2(C)C3=C(CC[C@]12C)[C@@]1(C)CCC(=O)C(C)(C)[C@@H]1CC3=O)C(=O)O` [Ganoderic acid DM] the value was 1077.482 RFU; for `COC(=O)[C@]12CCC(C)(C)C[C@H]1C1=CC[C@@H]3[C@@]4(C)CCC(=O)C(C)(C)[C@@H]4CC[C@@]3(C)[C@]1(C)CC2` [Methyl oleanonate], 912.7431 RFU.
Same read-out and setting: as for `CC(=O)C=Cc1ccccc1` [Benzylideneacetone], the figure is 1109.291 RFU; as for `COc1ccccc1C(=O)O` [2-Methoxybenzoic acid], 739.8823 RFU and 1090.701 RFU.
For the molecule `Oc1cc(O)c2c(c1)OC(c1ccc(O)c(O)c1)C(O)C2O` (stereo not drawn) [Leucocyanidin], the “Lipase (RFU)” value came out at 957.6226 RFU.
The same measure, in the same setting: as for `C[C@@H]1O[C@@H](OC[C@H]2O[C@@H](Oc3c(-c4ccc(O)cc4)oc4cc(O)cc(O)c4c3=O)[C@H](O)[C@@H](O)[C@H]2O)[C@H](O)[C@H](O)[C@H]1O` [Biorobin], the figure is 791.185 RFU; as for `CN1[C@@H]2CC[C@H]1C[C@@H](OC(=O)C(CO)c1ccccc1)C2` (stereo partly drawn) [Atropine], 1104.016 RFU.
Still for that read-out and setting: as for `C[N+](C)(C)CC(O)CC(=O)[O-]` (racemic) [D,L-Carnitine], the figure is 1067.602 RFU and 1032.196 RFU; as for Tara gum, 841.631 RFU; as for `CC1=C(/C=C/C(C)=C/C=C/C(C)=C/C=C/C=C(C)/C=C/C=C(\C)C=O)C(C)(C)CCC1` [β-Apo-8′-carotenal], 958.4764 RFU and 851.8107 RFU.
As for `N[C@@H](CSCSC[C@H](N)C(=O)O)C(=O)O` [L-Djenkolic Acid], the “Hit in lipase inhibition screen (in words)” value is “significantly inhibited lipase activity” and the “Lipase (RFU)” value was 317.7642 RFU.
Consider `C[C@H]1[C@H](C)CC[C@]2(C)CC[C@]3(C)C(=CC[C@@H]4[C@@]5(C)CC[C@@H](O)[C@](C)(C(=O)O)[C@@H]5CC[C@]43C)[C@H]12` [β-Boswellic acid], for which the “Lipase (RFU)” value is 813.2666 RFU.
As for `O=C1C[C@@H](c2ccc(O[C@@H]3O[C@H](CO)[C@@H](O)[C@H](O)[C@H]3O)cc2)Oc2cc(O)cc(O)c21` [Choerospondin], the “Lipase (RFU)” value is 1121.626 RFU.
Still for that read-out and setting: as for `C[C@@]12CCc3occc3[C@H]1CC[C@@]13C[C@@H](CC[C@H]12)[C@@](O)(CO)C3` [Cafestol], the figure is 1003.112 RFU; as for `CC(=O)N[C@@H](C)C(=O)O` [Ac-Ala-OH], 1189.332 RFU; as for `C[C@H](CCC(=O)NCCS(=O)(=O)O)[C@H]1CC[C@H]2[C@@H]3[C@H](O)C[C@@H]4C[C@H](O)CC[C@]4(C)[C@H]3C[C@H](O)[C@]12C` [Taurocholic acid (sodium)], 1062.302 RFU and 748.8784 RFU.
Consider `NC(=O)NCCC[C@H](N)C(=O)O` [L-Citrulline], for which the “Lipase (RFU)” value was 1167.04 RFU and 809.9531 RFU.
On the same count and under the same terms, as for `C1CSCSC1` [1,3-Dithiane], the figure is 1179.502 RFU; as for `C[N+](C)(C)[O-]` [Trimethylamine N-oxide], 948.4231 RFU and 1147.152 RFU.
On the same count and under the same terms, for `CCCCCCCC(=O)O[C@H](CC(=O)[O-])C[N+](C)(C)C` [L-Octanoylcarnitine] the value was 1071.191 RFU; for `COc1cc(/C=C/C(=O)CC(=O)CCc2ccc(O)c(OC)c2)ccc1O` [Dihydrocurcumin], 1140.2 RFU.
The same measure, in the same setting: as for `COc1cc2c(cc1OC)[C@@H]1C(=O)c3ccc4c(c3O[C@@H]1CO2)C=CC(C)(C)O4` [Deguelin], the figure is 955.3932 RFU; as for `O=P([O-])([O-])OP(=O)(O)O.[Na+].[Na+]` [Disodium pyrophosphate], 1213.966 RFU.
For the molecule `COc1ccc2c(=O)c(-c3ccc(O)cc3)coc2c1` [Isoformononetin], the “Lipase (RFU)” value stood at 1355.098 RFU.
Still for that read-out and setting: as for `N#CCc1ccc(O)cc1` [4-Hydroxybenzyl cyanide], the figure is 1050.204 RFU; as for `OC[C@H]1OC(O)[C@H](O)[C@@H](O)[C@@H]1O` (stereo partly drawn) [D--Glucose], 992.2563 RFU.
Same read-out and setting: as for `O=CO` [Formic Acid], the figure is 1027.958 RFU.
The same measure, in the same setting: as for `CC1(C)S[C@@H]2[C@H](NC(=O)[C@H](N)c3ccccc3)C(=O)N2[C@H]1C(=O)[O-].[Na+]` [Ampicillin (sodium)], the figure is 844.0223 RFU; as for `N[C@@H](CS)C(=O)NCC(=O)O.O=C(O)C(F)(F)F` [Cysteinylglycine (TFA)], 954.0897 RFU.
On to Ginkgolic Acid, for which the “Lipase (RFU)” value was 924.5734 RFU.
Still for that read-out and setting: for `COc1cc(C[C@H](C)[C@H](C)Cc2ccc3c(c2)OCO3)ccc1O` [Macelignan] the value was 621.9317 RFU; for `O=c1[nH]c2ccccc2o1` [Compound 2-Benzoxazolinone, 2-Benzoxazolinone], 985.9488 RFU.
Still for that read-out and setting: as for `C=C[C@@H](O)C#CC#C[C@@H](O)/C=C\CCCCCCC` [Falcarindiol], the figure is 827.8455 RFU; as for `CC(C)[C@@H]1CC[C@H](C)CC1=O` [(+)-Isomenthone], 807.8808 RFU; as for `O=C(O)COc1ccccc1` [Phenoxyacetic acid], 872.4796 RFU and 824.9859 RFU.
Still for that read-out and setting: for `C=C(O[C@@H]1C=C(C(=O)O)C=C[C@H]1O)C(=O)O` [Chorismic Acid] the value was 935.6375 RFU.
On to `O.O.O.O.OC[C@H]1O[C@H](OC[C@H]2O[C@H](OC[C@H]3O[C@H](O[C@]4(CO)O[C@H](CO)[C@@H](O)[C@@H]4O)[C@H](O)[C@@H](O)[C@@H]3O)[C@H](O)[C@@H](O)[C@H]2O)[C@H](O)[C@@H](O)[C@H]1O` [Stachyose (tetrahydrate)], for which the “Lipase (RFU)” value is given as 648.6527 RFU.
Same read-out and setting: as for `C[N+](C)(C)CCCC[C@H](N)C(=O)O` [Nε,Nε,Nε-Trimethyllysine (chloride)], the figure is 1143.924 RFU; as for `NC(CCCC(=O)O)C(=O)O` (stereo not drawn) [Aminoadipic acid], 1118.253 RFU.
On to `N[C@H]1CCOC1=O` [L-Homoserine Lactone], for which the “Lipase (RFU)” value was 1108.032 RFU.
Same read-out and setting: for `N[C@@H](CS(=O)O)C(=O)O` [L-Cysteine Sulfinic Acid] the value was 845.2477 RFU; for `C[C@H](CCC(=O)O)[C@H]1CC[C@H]2[C@@H]3C(=O)C[C@@H]4C[C@H](O)CC[C@]4(C)[C@H]3CC[C@]12C` [7-Ketolithocholic acid], 991.8245 RFU; for `C[C@H](CCC(=O)NCCS(=O)(=O)O)[C@H]1CC[C@H]2[C@@H]3[C@H](O)C[C@@H]4C[C@H](O)CC[C@]4(C)[C@H]3C[C@H](O)[C@]12C` [Taurocholic acid (sodium salt hydrate)], 1148.675 RFU.
Still for that read-out and setting: for `O=C(O)C(O)C(O)C(=O)O` (racemic) [DL-Tartaric acid] the value was 1079.017 RFU; for `COC(=O)c1cccnc1` [Methyl nicotinate], 1069.07 RFU and 773.2703 RFU.
Same read-out and setting: for `CCN(CC)CCOC(=O)C(Cc1cccc2ccccc12)CC1CCCO1.O=C(O)C(=O)O` (stereo not drawn) [Naftidrofuryl (oxalate)] the value was 1022.029 RFU.
With `OC[C@@]12OC[C@@H](O1)[C@@H](O)[C@@H](O)[C@@H]2O` [Sedoheptulosan], the “Lipase (RFU)” value was determined as 1068.783 RFU.
The same measure, in the same setting: for `CCOP(=O)(OCC)OCC` [Triethyl Phosphate] the value was 963.8293 RFU.
On the same count and under the same terms, as for `C[C@@H]1O[C@@H](O[C@H]2[C@H](Oc3c(-c4ccc(O)c(O)c4)oc4cc(O)cc(O)c4c3=O)O[C@H](CO)[C@@H](O)[C@@H]2O)[C@H](O)[C@H](O)[C@H]1O` [Quercetin 3-O-neohesperidoside], the figure is 838.5308 RFU; as for `O=c1ccc2c(O)c3ccoc3cc2o1` [Bergaptol], 1060.003 RFU.
Same read-out and setting: as for Xylan, the figure is 1273.332 RFU; as for `O=c1ccc2ccc(O[C@@H]3O[C@H](CO)[C@@H](O)[C@H](O)[C@H]3O)cc2o1` [Skimmin], 1029.943 RFU.
Regarding `C/C(C=O)=C\CC[C@@H](C)[C@H]1CC[C@@]2(C)C3=CC[C@H]4C(C)(C)C(=O)CC[C@]4(C)C3=CC[C@]12C` [Ganoderal A], the “Lipase (RFU)” value came to 1025.687 RFU.
Still for that read-out and setting: as for Estrone sulfate (potassium), the figure is 961.3154 RFU; as for `N[C@@H](CC(=O)O)C(=O)[O-].[Na+]` [L-Aspartic aicd (sodium)], 708.7772 RFU and 1026.622 RFU.
Still for that read-out and setting: for `CC(C)=C1C/C=C(\C)CC/C=C(\C)CC1=O` [Germacrone] the value was 974.0245 RFU; for `C[C@H](CCC(=O)NCCS(=O)(=O)O)[C@H]1CC[C@H]2[C@@H]3[C@@H](O)C[C@@H]4C[C@H](O)CC[C@]4(C)[C@H]3CC[C@]12C.O.O` [Tauroursodeoxycholate (dihydrate)], 1204.528 RFU; for `CC(=O)c1ccccc1N` [2′-Aminoacetophenone], 970.2571 RFU.
Take `COc1ccc(-c2cc(=O)c3c(O)cc(O[C@@H]4O[C@H](CO)[C@@H](O)[C@H](O)[C@H]4O[C@@H]4O[C@@H](C)[C@H](O)[C@@H](O)[C@H]4O)cc3o2)cc1O` [Neodiosmin]: the “Lipase (RFU)” value is 928.3945 RFU.
Same read-out and setting: for Chicoric acid the value was 1008.153 RFU.
Same read-out and setting: for `C[C@H](CCC(=O)O)[C@H]1CC[C@H]2[C@@H]3[C@H](O)C[C@H]4C[C@H](O)CC[C@]4(C)[C@H]3C[C@H](O)[C@]12C` [Allocholic acid] the value was 1000.774 RFU; for `COC(=O)c1ccc(OC)cc1` [Methyl anisate], 1101.708 RFU and 911.2014 RFU; for `O=C(CO)[C@@H](O)[C@H](O)[C@@H](O)C(=O)O` [5-Keto-D-Gluconic Acid], 922.1469 RFU.
On the same count and under the same terms, as for (+)-Catechin hydrate, the figure is 928.2252 RFU.
As to `O=c1c(-c2ccc(O)cc2)coc2cc(O[C@@H]3O[C@H](CO)[C@@H](O)[C@H](O)[C@H]3O)ccc12` [Daidzin], the “Lipase (RFU)” value is reported as 828.0829 RFU.
Same read-out and setting: as for Ursolic acid acetate, the figure is 811.3971 RFU; as for Maltopentaose, 907.876 RFU.
